Experiments:
[1] = Dimerization of linker element precursors in aqueous solution by MS and MS/MS; type: physicochemical
Method: The ability of precursors to linker elements to form dimers in aqueous solutions was determined by mass spectrometry (MS) and mass spectrometry/mass spectrometry (MS/MS). Linker elements that form dimers (or multimers) only as a result of the ionization during mass spectrometry can be distinguished from those that truly form dimers in aqueous solution by determination of the fragmentation during mass spectrometry/mass spectrometry.

Bcl-xL = Bcl-xL (Homo sapiens, UniProt Q07817); settings: read-out: DISSOCIATION CONSTANT (Kd); cited from earlier work
MEK1 = MEK1 (Homo sapiens, UniProt Q02750); settings: read-out: DISSOCIATION CONSTANT (Kd); cited from earlier work
CDK2 = CDK2 (Homo sapiens, UniProt P24941); settings: read-out: DISSOCIATION CONSTANT (Kd); cited from earlier work
MEK2 = MEK2 (Homo sapiens, UniProt P36507); settings: read-out: DISSOCIATION CONSTANT (Kd); cited from earlier work
β CATENIN = target: T1, β CATENIN (Homo sapiens, UniProt P35222); settings: read-out: DISSOCIATION CONSTANT (Kd); cited from earlier work
T1 sequence (P35222 1-781): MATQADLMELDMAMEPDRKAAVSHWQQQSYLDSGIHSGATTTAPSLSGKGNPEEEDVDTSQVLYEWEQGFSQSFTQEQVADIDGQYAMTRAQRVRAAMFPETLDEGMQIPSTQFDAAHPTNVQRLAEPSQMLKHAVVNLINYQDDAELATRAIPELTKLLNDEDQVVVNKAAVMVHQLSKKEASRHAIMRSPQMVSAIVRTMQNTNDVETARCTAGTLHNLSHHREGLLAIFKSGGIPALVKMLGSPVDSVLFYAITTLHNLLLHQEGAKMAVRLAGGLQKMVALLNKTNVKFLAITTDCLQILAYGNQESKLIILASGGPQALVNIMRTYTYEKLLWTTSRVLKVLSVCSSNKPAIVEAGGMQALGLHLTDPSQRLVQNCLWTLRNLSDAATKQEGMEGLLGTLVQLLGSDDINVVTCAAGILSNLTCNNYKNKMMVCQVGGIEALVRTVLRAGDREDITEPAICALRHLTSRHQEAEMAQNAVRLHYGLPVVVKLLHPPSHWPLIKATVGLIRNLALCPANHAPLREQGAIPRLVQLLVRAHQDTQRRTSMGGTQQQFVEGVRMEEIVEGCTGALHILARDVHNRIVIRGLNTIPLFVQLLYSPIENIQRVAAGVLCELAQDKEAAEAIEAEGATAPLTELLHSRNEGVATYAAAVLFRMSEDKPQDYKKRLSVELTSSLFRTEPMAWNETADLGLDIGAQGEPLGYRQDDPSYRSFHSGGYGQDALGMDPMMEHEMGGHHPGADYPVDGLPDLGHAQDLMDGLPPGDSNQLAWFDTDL

CaMKII = settings: read-out: DISSOCIATION CONSTANT (Kd); cited from earlier work
ERK = settings: read-out: DISSOCIATION CONSTANT (Kd); cited from earlier work
[2] = self-dimerization, MS and MS/MS
[3] = piperidin-2-ylmethanol with cyclohexylboronic acid

Bcl-xL, sequence (Q07817 whole entry, species assumed): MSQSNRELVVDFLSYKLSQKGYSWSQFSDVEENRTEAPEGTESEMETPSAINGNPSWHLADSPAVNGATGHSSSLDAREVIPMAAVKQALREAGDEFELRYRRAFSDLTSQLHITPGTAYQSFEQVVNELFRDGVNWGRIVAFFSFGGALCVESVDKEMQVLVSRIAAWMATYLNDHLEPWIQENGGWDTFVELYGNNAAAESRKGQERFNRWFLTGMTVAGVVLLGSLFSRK

## O=C1CCCCC1O (stereo not shown) [2-hydroxycyclohexanone]
[1]; [2]
  ability to form dimers in aqueous solution: forms a dimer

## O=C(CO)CO [1,3-dihydroxyacetone]
[1]; [2]
  ability to form dimers in aqueous solution: exists mostly as the monomer

## Cc1occc(=O)c1O [3-hydroxy-2-methyl-4H-pyran-4-one]
[1]; with zinc acetate, 2 molecules co-ordinating one Zn cation, MS/MS
  ability to form dimers in aqueous solution: form a dimer

## cytochrome c: binding partner of Bcl-xL
Bcl-xL
  Kd: 0.12 µM

## ERK1: binding partner of MEK1
MEK1
  Kd: 29 µM

## OB(O)C1CCCCC1 [cyclohexylboronic acid]
[1]; [3]
  ability to form dimers in aqueous solution: form a dimer

## Nc1ncnc2c1ncn2[C@@H]1O[C@H](COP(=O)(O)OP(=O)(O)OP(=O)(O)O)[C@@H](O)[C@H]1O [ATP]
CDK2
  Kd: 0.227 µM

## OCC1CCCCN1 (stereo not shown) [piperidin-2-ylmethanol]
[1]; [3]
  ability to form dimers in aqueous solution: form a dimer

## Nc1ncnc2c1ncn2[C@@H]1O[C@H](COP(=O)(O)OP(=O)(O)O)[C@@H](O)[C@H]1O [ADP]
CDK2
  Kd: 2.7 µM

## ERK2: binding partner of MEK2
MEK2
  Kd: 9 µM

## APC: binding partner of β CATENIN
β CATENIN
  Kd: 310 µM

## Calmodulin
CaMKII
  Kd: 0.03 µM

## MEK1: binding partner of ERK
ERK
  Kd: 0.61 µM

Reference: patent US8853185B2, “Coferons and methods of making and using them” (Cornell University, priority 2008, dated 2014)
